From patent publication US9365520B2, “Heterocyclic compound” (Takeda Pharmaceutical Company Limited, priority 2014, dated 2016)

What was measured:
IL-17A gene expression = assay: Effect on IL-23-induced cytokine expression in mice; type: in vivo, Balb/c mice; settings: Mus musculus, 24 h, 30 min before and 8 hr after IL-23, ear tissue, versus the negative control group, read-out: percent inhibition of IL-17A gene expression
Method: Effect on IL-23-Induced Cytokine Expression in Mice
A mouse IL-23 solution (500 ng/10 μL, prepared by Takeda Pharmaceutical Company Limited) or PBS (10 μL, negative control group) was administered intradermally in the ear of Balb/c mice (Charles River Japan, male, 7 weeks old). Twenty-four hr after administration, the ear was resected under isoflurane anesthesia. The test compound was suspended in 0.5% methylcellulose and administered orally 30 min before and 8 hr after IL-23 administration.
RNA extraction from the ear tissue and quantitative PCR were performed as follows. Specifically, ear tissue 5 mm in diameter was punched from an area of the resected ear centering on the IL-23 injection site, and the tissue was immersed in RNAlater (QIAGEN) for at least 18 hr. The RNAlater-treated ear tissue was homogenized in 350 μL of RLT buffer (RNeasy mini kit, QIAGEN) and treated (55° C., 10 min) with Proteinase K (QIAGEN). Total RNA was then extracted according to the RNeasy mini kit protocol. The RNA thus obtained was then reverse transcribed into cDNA using the High-Capacity RNA-to-cDNA kit (Applied Biosystems), and the amount of each gene expressions was measured by real-time PCR (Viia7™, Applied Biosystems). The PCR buffer used was TaqMan Fast Advanced Master Mix (Applied Biosystems), and TaqMan Gene Expression Assays (Applied Biosystems) Mm00439618_m1 (IL-17A) and 4352341E (β-actin) were used for each gene detection. The IL-17A gene expression level was normalized to the β-actin gene expression level, and the percent inhibition of IL-17A gene expression with the test compound was then calculated.
The results (percent inhibition of IL-17A gene expression with oral administration of the test compound) measured by the above-mentioned method are shown in Table 9.

[1] = test system: IL-23-induced mouse psoriasis model; assay: Effect in an IL-23-induced mouse psoriasis model; type: in vivo, Balb/c mice; settings: versus the negative control group
Method: Effect in an IL-23-Induced Mouse Psoriasis Model
Mouse IL-23 (500 ng/15 μL, R&D) or PBS (15 μL, negative control group) was administered intradermally in the ear of Balb/c mice (Charles River Japan, male, 7 weeks old) 5 times every other days. Seven hr after IL-23 administration at 8 days after the initial administration (final administration), the mice were anesthetized with isoflurane, and ear thickness was measured with calipers. After the ear thickness was measured, the ear was resected, tissue 8 mm in diameter was punched from an area centering on the IL-23 injection site, and the tissue was weighed. The punched ear tissue was cut in half, and one half was immersion-fixed in 10% neutral buffer formalin solution for use in histopathological evaluation. The other half was immersed in RNAlater (QIAGEN) for at least 18 hr for use in an evaluation of the IL-17A mRNA expression level. The test compound was suspended in 0.5% methylcellulose and administered orally twice daily on consecutive days from 30 min before the initial IL-23 administration to 30 min before the final IL-23 administration.
The change in ear thickness in this model was evaluated by calculating the difference in measured thickness between before IL-23 administration and 7 hr after the final IL-23 administration. In addition, the formalin-fixed tissue was embedded and sectioned, then stained with hematoxylin-eosin. The degree of acanthosis was then evaluated qualitatively by microscopy (classified with a score of 0 to 4). RNA extraction from the ear tissue and quantitative PCR were performed as follows. As described above, ear tissue treated with RNAlater (QIAGEN) was homogenized in 350 μL of RLT buffer (RNeasy mini kit, QIAGEN) and treated (55° C., 10 min) with Proteinase K (QIAGEN). Total RNA was then extracted according to the RNeasy mini kit protocol. The RNA thus obtained was reverse transcribed into cDNA using the High-Capacity RNA-to-cDNA kit (Applied Biosystems), and the expression of each gene was measured by real-time PCR (Viia7™, Applied Biosystems). The PCR buffer used was TaqMan Fast Advanced Master Mix (Applied Biosystems), and TaqMan Gene Expression Assays (Applied Biosystems) Mm00439618_ml (IL-17A) and 4352341E (β-actin) were used to detect the genes. The IL-17A gene expression level was normalized to the β-actin gene expression level, and the percent inhibition of IL-17A gene expression with the test compound was then calculated.
The results (percent inhibition of ear thickness, acanthosis score and IL-17A gene expression with oral administration of the test compound) measured by the above-mentioned method are shown in Table 10.

[2] = test system: T cell-transferred mouse colitis model; assay: Effect in a T cell-transferred mouse colitis model; type: in vivo, mice; settings: 3 mg/kg oral twice daily; 21 days after cell transfer; versus the negative control group
Text: Effect in a T Cell-Transferred Mouse Colitis Model
Balb/c mice (Charles River Japan, female, 8 weeks old) were euthanized, and the spleens were resected, mashed in mesh, and passed through cell strainer to prepare a suspension of splenic cells. The mononuclear cell fraction in the splenic cells was isolated by density-gradient centrifugation, and subjected to hemolysis treatment with ammonium chloride buffer solution (Immuno-Biological Laboratories, Co., Ltd.). The naive T-cells were purified using CD4+CD62L+ T Cell Isolation Kit II (Miltenyi Biotec). The naive T-cells (2×10^5 cells/mouse) were intravenously transferred into SCIDmice (CLEA Japan, female, 8 weeks old). The compound was suspended in 0.5% methyl cellulose, and the suspension was orally administered twice daily on consecutive days from the same evening of the cell transfer. The mice were blinded 20 days after the cell transfer, and the symptom of the stool on floorcloth under blind was evaluated by scores of 1 to 4 (1: normal, 2: loose stool, 3: diarrhea (formed), 4: diarrhea (unformed)) 21 days after the cell transfer. […] The large intestine was washed with saline, and the weight was measured.
The results (percent inhibition of intestinal tract weight and diarrhea score with oral administration of the test compound) measured by the above-mentioned method are shown in Table 11.

mouse EAE model = assay: Effect in a mouse EAE model; type: in vivo, C57BL/6J mice; settings: 3 mg/kg oral; integration value of the clinical score for 28 days; versus the negative control group
Method: Effect in a Mouse EAE Model
. C57BL/6J mice (10 weeks old, female, Charles River Japan) were grouped based on the body weight, and the MOG emulsion was intradermally administered at two point of the joint of dorsal hindlimb so that the dose was 100 μL/site, 200 μL/mouse. In addition, Pertussis toxin (Merck) was intraperitoneally administered twice on the sensitization day and 2 days thereafter in the dose of 400 ng/200 μL/mouse. The body weight was measured twice a week before onset and everyday (excluding holiday) after onset from the sensitization day. The clinical score was evaluated by the following standard scores of 0 to 5 (0: normal, 0.5: partial paralysis of tail, 1: complete paralysis of tail, 2: partial paralysis of hindlimb, 3: paralysis of lower body, 4: partial paralysis of forelimb, 5: paralysis of both forelimbs or death) by observation everyday (excluding holiday) after the beginning of onset.
The percent inhibition of the clinical score of the test compound administration group relative to that of the control group was calculated using integration value of the clinical score for 28 days.
The results (percent inhibition of clinical score with oral administration of the test compound) measured by the above-mentioned method are shown in Table 12.

Row | SMILES | inhibition in vivo at 10 mg/kg (IL-17A gene expression; 10 mg/kg oral) | percent inhibition of IL-17A expression ([1]; 1 mg/kg oral twice daily) | percent inhibition of acanthosis score ([1]; 1 mg/kg oral twice daily) | percent inhibition of ear thickness ([1]; 1 mg/kg oral twice daily) | inhibition in vivo at 3 mg/kg (IL-17A gene expression; 3 mg/kg oral) | percent inhibition of IL-17A expression ([1]; 3 mg/kg oral twice daily) | percent inhibition of acanthosis score ([1]; 3 mg/kg oral twice daily) | percent inhibition of ear thickness ([1]; 3 mg/kg oral twice daily) | percent inhibition of diarrhea score [2] | percent inhibition of intestinal tract weight [2] | percent inhibition of clinical score (mouse EAE model)
1 | COc1ccc2c(n1)CCN(C(=O)[C@H]1C[C@@H](C(=O)O)C1)[C@H]2C(=O)Nc1cc(F)c2c(c1)CCC2(C)C [Example 10] | 87% | 91% | 47% | 52% | – | – | – | – | – | – | –
2 | COc1ccc2c(n1)CCN(C(=O)[C@H]1C[C@@H](CC(=O)O)C1)[C@H]2C(=O)Nc1cc(F)c2c(c1)CCC2(C)C [Example 15, (cis-3-(((5R)-5-((7-fluoro-1,1-dimethyl-2,3-dihydro-1H-inden-5-yl)carbamoyl)-2-methoxy-7,8-dihydro-1,6-naphthyridin-6(5H)-yl)carbonyl)cyclobutyl)acetic acid] | – | – | – | – | 99% | 93% | 53% | 61% | 81% | 58% | 64%
